Laboratory results published in paper PMC9551036, “A selective and orally bioavailable VHL-recruiting PROTAC achieves SMARCA2 degradation in vivo” (Nature Communications, 2022).
Several values for one entry are separate records, joined by “and”; a condition that tells them apart may be missing. Equal entries are not always repeated.

Assays:
Solubility testing = format: physicochemical
Procedure: Dilution into a 1:1 mixture of acetonitrile and water was used as reference. After 24 h, the incubations were filtrated, and the filtrate was analyzed by LC-UV.

PBRM1BD5 [1] = assay: TR-FRET ternary complex affinity and cooperativity, PBRM1; format: binding; settings: ratio TR-FRET EC50 / TR-FRET EC50 +VCB measured in the same run, PBRM1BD5
PBRM1BD5 [2] = molecular target: T1, PBRM1BD5 (Homo sapiens, UniProt P40337+Q86U86); assay: as above; format: binding; settings: TR-FRET competition for PBRM1BD5, + VCB; mean ± SD; read-out: TR-FRET Ternary PBRM1BD EC50 (PROTAC + VCB)
T1 construct: GST (TEV site) (N); His6 (TEV site) (N, cleaved yes); made in house; host or cells: PBRM1^BD5: Escherichia coli BL21(DE3)
T1 sequence (Q86U86 645-766): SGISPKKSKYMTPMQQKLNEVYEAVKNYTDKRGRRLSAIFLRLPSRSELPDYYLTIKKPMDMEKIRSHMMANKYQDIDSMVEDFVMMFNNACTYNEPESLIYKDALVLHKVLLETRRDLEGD
T1 sequence (P40337 54-213): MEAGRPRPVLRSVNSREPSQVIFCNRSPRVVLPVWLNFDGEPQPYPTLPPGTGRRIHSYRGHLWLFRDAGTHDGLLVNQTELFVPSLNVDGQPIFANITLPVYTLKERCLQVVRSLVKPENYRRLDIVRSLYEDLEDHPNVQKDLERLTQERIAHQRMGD
T1 sequence (Q15369 17-112 partner): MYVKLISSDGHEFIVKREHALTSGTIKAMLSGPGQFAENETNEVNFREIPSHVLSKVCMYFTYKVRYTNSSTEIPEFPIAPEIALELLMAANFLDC
T1 sequence (Q15370 1-104 partner): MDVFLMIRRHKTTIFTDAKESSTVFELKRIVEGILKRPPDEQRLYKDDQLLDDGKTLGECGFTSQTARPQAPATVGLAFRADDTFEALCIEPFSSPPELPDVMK

[3] = test system: VCB: PROTAC: SMARCA4^BD ternary complex; assay: TR-FRET ternary complex affinity and cooperativity, SMARCA4; format: binding, human; settings: ratio TR-FRET EC50 / TR-FRET EC50 +VCB measured in the same run, SMARCA4BD
[4] = molecular target: VCB: PROTAC: SMARCA2^BD ternary complex (Homo sapiens, UniProt P40337+P51531); assay: SPR ternary complex measurement, VCB immobilised, 10 µM SMARCA2^BD present; format: binding; parameters: P51531-2, residues 1373-1493 with additional N-terminal SM residues; His6 (TEV site) (N, cleaved yes); GST (TEV site) (N, cleaved yes); made in house; host or cells: SMARCA2^BD: Escherichia coli BL21(DE3); settings: for Kd: SPR; for alpha: cooperativity, SMARCA2, ratio of KD values measured in the same run
Sequence of VCB: PROTAC: SMARCA2^BD ternary complex (P40337 54-213): as the sequence (P40337 54-213) above
Sequence of VCB: PROTAC: SMARCA2^BD ternary complex (Q15369 17-112 partner limits assumed): as the sequence (Q15369 17-112 partner) above
Sequence of VCB: PROTAC: SMARCA2^BD ternary complex (Q15370 1-104 partner limits assumed): as the sequence (Q15370 1-104 partner) above
Sequence of VCB: PROTAC: SMARCA2^BD ternary complex (P51531 1373-1493 isoform P51531-2): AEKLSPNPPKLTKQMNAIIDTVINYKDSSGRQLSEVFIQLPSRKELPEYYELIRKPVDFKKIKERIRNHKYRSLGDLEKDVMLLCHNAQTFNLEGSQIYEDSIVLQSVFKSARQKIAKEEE
Procedure: (§1) SPR data were acquired on Biacore 8K or T200 instruments (Cytiva). Target proteins were immobilised at 25 °C on CM5 chips by amine coupling (EDC/NHS, Cytiva) in HBS-P+ running buffer (pH 7.4), containing 2 mM TCEP. […] The reference surface was subsequently deactivated using 1 M ethanolamine. […] Biotinylated VCB was prepared as previously described[27]: in brief, the complex was mixed 1:1 with EZ-Link NHS–PEG4–biotin (Thermo Scientific) and incubated at room temperature for 1 h. Unreacted NHS-biotin was removed using a PD-10 desalting column (Cytiva) into 20 mM HEPES, pH 7.5, 150 mM sodium chloride and 1 mM DTT. The reference surface was generated by deactivating the EDC/NHS-treated surface with 1 M ethanolamine. All interaction experiments were done at 6 °C in running buffer (20 mM TRIS, pH 8.3, 150 mM potassium chloride, 2 mM magnesium chloride, 2 mM TCEP, 0.005% TWEEN 20, 1% dimethyl sulfoxide). For ternary complex measurements, a sensor chip surface with VCB immobilised was used (preparation as described above). Experiments were run in dual-inject mode with 10 µM SMARCA present during the injection and dissociation phase. Sensorgrams from reference surfaces and blank injections were subtracted from the raw data prior to data analysis using Biacore Insight software. Affinity and binding kinetic parameters were determined by global fitting using the 1:1 interaction model with a term for mass-transport included.

Caco-2 cell monolayer = assay: Bidirectional permeability measurement in Caco-2 cells; format: in vitro ADME
Procedure, shortened: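 Caco-2 monolayers grown 14–21 days, preincubated 24 h with medium containing 1 µM compound; bidirectional transport sampled up to 2 h, quantified by LC-MS/MS, ± 5 µM zosuquidar (P-gp inhibitor). Papp,AB and Papp,BA from receiver amount, donor C0, area and time; efflux ratio = Papp,BA/Papp,AB (duplicate means). TEER checked per plate.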

[5] = molecular target: VCB: PROTAC: SMARCA4^BD ternary complex (Homo sapiens, UniProt P40337+P51532); assay: SPR ternary complex measurement, VCB immobilised, 10 µM SMARCA4^BD present; format: binding; parameters: P51532, residues 1448–1569 with additional N-terminal SM residues; His6 (TEV site) (N, cleaved yes); GST (TEV site) (N, cleaved yes); made in house; host or cells: SMARCA4^BD: Escherichia coli BL21(DE3); settings: for Kd: SPR; for alpha: cooperativity, SMARCA4, ratio of KD values measured in the same run
Sequence of VCB: PROTAC: SMARCA4^BD ternary complex (Homo sapiens, UniProt P40337+P51532) (P40337 54-213): as the sequence (P40337 54-213) above
Sequence of VCB: PROTAC: SMARCA4^BD ternary complex (Homo sapiens, UniProt P40337+P51532) (Q15369 17-112 partner limits assumed): as the sequence (Q15369 17-112 partner) above
Sequence of VCB: PROTAC: SMARCA4^BD ternary complex (Homo sapiens, UniProt P40337+P51532) (Q15370 1-104 partner limits assumed): as the sequence (Q15370 1-104 partner) above
Sequence of VCB: PROTAC: SMARCA4^BD ternary complex (Homo sapiens, UniProt P40337+P51532) (P51532 1448-1569): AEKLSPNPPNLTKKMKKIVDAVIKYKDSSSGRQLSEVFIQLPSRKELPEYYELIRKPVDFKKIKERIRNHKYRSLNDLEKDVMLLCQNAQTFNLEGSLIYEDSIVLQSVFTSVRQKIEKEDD
Procedure: as §1

[6] = ternary complex with SMARCA2BD, mean ± SD
[7] = Modified Caco-2, a to b, + PGPi (Zosuquidar)
[8] = ternary complex with SMARCA4BD, mean ± SD

SMILES	Solubility pH 6.8 (Solubility testing)	cooperativity α (PBRM1BD) (PBRM1BD5 [1])	EC50 (PBRM1BD5 [2]) [nM]	cooperativity α (SMARCA4BD) [3]	Kd [4, 6] [nM]	Kd ([4]; ternary, individual replicates)	alpha [4]	Caco-2 Pab (Caco-2 cell monolayer; Caco-2)	Modified Caco-2 Efflux ratio (Caco-2 cell monolayer; Modified Caco-2)	Modified Caco-2 Pab (Caco-2 cell monolayer; Modified Caco-2)	Modified Caco-2 Pab + PGPi (Zosuquidar) (Caco-2 cell monolayer; [7])	Modified Caco-2 Pba + PGPi (Zosuquidar) (Caco-2 cell monolayer; Modified Caco-2, b to a, + PGPi (Zosuquidar)) [×10⁻⁶ cm/s]	Kd [5, 8] [nM]	Kd ([5]; ternary, individual replicates)	alpha [5]	Solubility pH 4.5 (Solubility testing)	Caco-2 Pab (Caco-2 cell monolayer; Caco-2, a to b)	Caco-2 Efflux ratio (Caco-2 cell monolayer; Caco-2) [No peak area]	Modified Caco-2 Pab (Caco-2 cell monolayer; Modified Caco-2, a to b)
Cc1ncsc1-c1ccc([C@H](COC(C)(C)CN2CCC(c3ccc4c(c3)n(C3CCCC3)c3nc(=O)c5c(Br)cccc5n43)CC2)NC(=O)[C@@H]2C[C@@H](O)CN2C(=O)[C@@H](NC(=O)C2(F)CC2)C(C)(C)C)cc1 [compound 28]	<1.000 <1.000 <1.000 <1.000 <1.000 ug/mL	6.9 ± 1.9	4 ± 2	3.2 ± 0.7	120 ± 34	82.7 nM and 149 nM and 127 nM	0.5	5 ± 2 10-6 cm/s	37.037 and >37	<7 10-6 cm/s	11 ×10⁻⁶ cm/s and 13 ×10⁻⁶ cm/s	14	73 ± 13	63.4 nM and 67.4 nM and 86.9 nM	0.8				
Cc1ncsc1-c1ccc([C@H](CC[C@@H](C)CCN2CCC(c3ccc4c(c3)n(C3CCCC3)c3nc(=O)c5c(Br)cccc5n43)CC2)NC(=O)[C@@H]2C[C@@H](O)CN2C(=O)[C@@H](NC(=O)C2(F)CC2)C(C)(C)C)cc1 [compound 29]	<1.000 <1.000 ug/mL	24.9 ± 2.4	3 ± 1	7.0 ± 1.3	20 ± 4	15.6 nM and 23 nM and 21.9 nM	0.6	2 ± 0.2 10-6 cm/s					11 ± 1	11.5 nM (2×) and 9.84 nM	1.1	<1.000 <1.000 ug/mL	1.9e-06 cm/s and < 1.9e-06 cm/s and 2.4e-06 cm/s		
Cc1ncsc1-c1ccc([C@H](CCC(C)(C)CCN2CCC(c3ccc4c(c3)n(C3CCCC3)c3nc(=O)c5c(Br)cccc5n43)CC2)NC(=O)[C@@H]2C[C@@H](O)CN2C(=O)[C@@H](NC(=O)C2(F)CC2)C(C)(C)C)cc1 [compound 30]	<1.000 ug/mL	22.4 ± 3.9	6 ± 2	4.3 ± 0.5	86 ± 22	66.1 nM and 109 nM and 81.8 nM	0.3	<0.3 10-6 cm/s	7.333 and 12.000 and 10 ± 3		7.2 ×10⁻⁶ cm/s and 8.4 ×10⁻⁶ cm/s		45 ± 6	41.2 nM and 41.8 nM and 51.4 nM	0.6	<1.000 ug/mL		9.412	4.5e-06 cm/s and 2.5e-06 cm/s
